# Experimental data taken from ChEMBL document CHEMBL6092167, “Phosphorylation as an Effective Tool to Improve Stability and Reduce Toxicity of Antimicrobial Peptides” (J Med Chem, 2024).
# The source made the active and inactive calls. The calls are words filed in the database; no cut-off is given here. Non-standard residues stand in square brackets, D forms with d. Residues, ends and D or L forms follow the SMILES beside them. Bip = N[C@@H](Cc1ccc(-c2ccccc2)cc1)C(=O)O; pY = N[C@@H](Cc1ccc(OP(=O)(O)O)cc1)C(=O)O
# Experiments:
# [1] = tested on: Klebsiella pneumoniae; test: Antibacterial activity against Klebsiella pneumoniae ATCC 700603 incubated for 18 to 24 hrs by broth microdilution method; format: functional; settings: time 18-24 hrs
# [2] = tested on: Cell membrane; test: Induction of cytoplasmic membrane rupture in Staphylococcus aureus ATCC 25923 assessed as shrinkage at 2 times MIC incubated for 30 to 120 mins by SEM analysis; format: subcellular; settings: time 30-120 min
# [3] = tested on: Staphylococcus aureus; test: Antibiofilm activity against Staphylococcus aureus ATCC 25923 assessed as eradication of preformed biofilms incubated for 24 hrs by crystal violet staining based assay; format: functional, organism-based
# [4] = tested on: Klebsiella pneumoniae; test: Synergistic antibacterial activity against Klebsiella pneumoniae ATCC 700603 assessed as fractional inhibitory concentration index at 1/4 to 4 times MIC incubated for 18 to 24 hrs in presence of polymyxin B by checkerboard assay; format: functional; settings: time 18-24 hrs
# [5] = Stability in Kunming mouse serum assessed as half life measured upto 24 hrs by RP-HPLC method; format: ADME, cell-free
# [6] = tested on: Cell membrane; test: Induction of inner membrane permeabilization in Escherichia coli ML-35 assessed as increase in […] intensity by ONPG dye based microplate reader assay; format: subcellular
# [7] = tested on: Staphylococcus aureus; test: Antibacterial activity against methicillin resistant Staphylococcus aureus 48 incubated for 18 to 24 hrs by broth microdilution method; format: functional; settings: time 18-24 hrs
# [8] = tested on: Acinetobacter baumannii; test: Antibacterial activity against Acinetobacter baumannii ATCC 19606 incubated for 18 to 24 hrs by broth microdilution method; format: functional; settings: time 18-24 hrs
# [9] = tested on: Pseudomonas aeruginosa; test: Antibacterial activity against Pseudomonas aeruginosa 119 incubated for 18 to 24 hrs by broth microdilution method; format: functional; settings: time 18-24 hrs
# [10] = tested on: Staphylococcus aureus; test: Antibacterial activity against Staphylococcus aureus ATCC 25923 incubated for 18 to 24 hrs by broth microdilution method; format: functional; settings: time 18-24 hrs
# [11] = tested on: Cell membrane; test: Induction of cytoplasmic membrane rupture in Pseudomonas aeruginosa ATCC 27853 assessed as blistering at 2 times MIC incubated for 30 to 120 mins by SEM analysis; format: subcellular; settings: time 30-120 min
# [12] = tested on: Escherichia coli; test: Inhibition of biofilm formation in Escherichia coli ATCC 25922 incubated for 24 hrs by crystal violet staining based assay; format: functional, organism-based
# [13] = Cytotoxicity against HEK293T cells incubated for 1 hr by fluorescence based microplate reader assay; format: toxicity, cell-based, HEK-293T; settings: human
# [14] = biological target: Trypsin (Homo sapiens, UniProt P07477+P07478+P35030); test: Stability of compound assessed as trypsin (unknown origin) mediated compound degradation; format: ADME, protein assay
# [15] = tested on: Klebsiella pneumoniae; test: Inhibition of kanamycin resistance in Klebsiella pneumoniae ATCC 700603 at 1:1 compound: kanamycin molar ratio measured after 20 generation; format: functional, organism-based
# [16] = tested on: Klebsiella pneumoniae; test: Additive antibacterial activity against Klebsiella pneumoniae ATCC 700603 assessed as fractional inhibitory concentration index at 1/4 to 4 times MIC incubated for 18 to 24 hrs in presence of ciprofloxacin by checkerboard assay; format: functional; settings: time 18-24 hrs
# [17] = Toxicity in ip dosed BALB/c mouse measured after 14 days; format: organism-based; settings: in vivo, time 14 day
# [18] = tested on: Klebsiella pneumoniae; test: Inhibition of rifampicin resistance in Klebsiella pneumoniae ATCC 700603 at 1:1 compound: rifampicin molar ratio measured after 20 generation; format: functional, organism-based
# [19] = tested on: Escherichia coli; test: Antibiofilm activity against Escherichia coli ATCC 25922 assessed as eradication of preformed biofilms incubated for 24 hrs by crystal violet staining based assay; format: functional, organism-based
# [20] = tested on: Klebsiella pneumoniae; test: Antibacterial activity against kanamycin resistant Klebsiella pneumoniae; format: functional
# [21] = tested on: Pseudomonas aeruginosa; test: Antibacterial activity against Pseudomonas aeruginosa ATCC 27853 incubated for 18 to 24 hrs by broth microdilution method; format: functional; settings: time 18-24 hrs
# [22] = tested on: Escherichia coli; test: Antibacterial activity against Escherichia coli 850 incubated for 18 to 24 hrs by broth microdilution method; format: functional; settings: time 18-24 hrs
# [23] = tested on: Klebsiella pneumoniae; test: Additive antibacterial activity against Klebsiella pneumoniae ATCC 700603 assessed as fractional inhibitory concentration index at 1/4 to 4 times MIC incubated for 18 to 24 hrs in presence of rifampicin by checkerboard assay; format: functional; settings: time 18-24 hrs
# [24] = tested on: Cell membrane; test: Induction of membrane damage in Pseudomonas aeruginosa ATCC 27853 assessed as change in membrane shape at 2 times MIC incubated for 30 to 120 mins by SEM analysis; format: subcellular; settings: time 30-120 min
# [25] = tested on: Cell membrane; test: Induction of cell membrane disruption in Staphylococcus aureus ATCC 25923 at 2 times MIC incubated for 2 hrs by SEM analysis; format: subcellular
# [26] = tested on: Klebsiella pneumoniae; test: Inhibition of biofilm formation in Klebsiella pneumoniae ATCC 700603 incubated for 24 hrs by crystal violet staining based assay; format: functional, organism-based
# [27] = tested on: Staphylococcus aureus; test: Antibacterial activity against Staphylococcus aureus 794 incubated for 18 to 24 hrs by broth microdilution method; format: functional; settings: time 18-24 hrs
# [28] = tested on: Staphylococcus aureus; test: Antibacterial activity against methicillin resistant Staphylococcus aureus ATCC 33591 incubated for 18 to 24 hrs by broth microdilution method; format: functional; settings: time 18-24 hrs
# [29] = tested on: Cell membrane; test: Induction of cytoplasmic membrane rupture in Pseudomonas aeruginosa ATCC 27853 assessed as adhesion at 2 times MIC incubated for 30 to 120 mins by SEM analysis; format: subcellular; settings: time 30-120 min
# [30] = tested on: Pseudomonas aeruginosa; test: Antibiofilm activity against Pseudomonas aeruginosa ATCC 27853 assessed as eradication of preformed biofilms incubated for 24 hrs by crystal violet staining based assay; format: functional, organism-based
# [31] = tested on: Cell membrane; test: Induction of cytoplasmic membrane rupture in Pseudomonas aeruginosa ATCC 27853 assessed as leakage of cellular content at 2 times MIC incubated for 30 to 120 mins by SEM analysis; format: subcellular; settings: time 30-120 min
# [32] = tested on: Staphylococcus aureus; test: Antibiofilm activity against Staphylococcus aureus ATCC 25923 assessed as eradication of preformed biofilms at 2 to 4 times MIC incubated for 24 hrs by crystal violet staining based assay; format: functional, organism-based
# [33] = tested on: Cell membrane; test: Induction of cell membrane disruption in Pseudomonas aeruginosa ATCC 27853 at 2 times MIC incubated for 2 hrs by SEM analysis; format: subcellular
# [34] = tested on: Pseudomonas aeruginosa; test: Inhibition of biofilm formation in Pseudomonas aeruginosa ATCC 27853 incubated for 24 hrs by crystal violet staining based assay; format: functional, organism-based
# [35] = tested on: Cell membrane; test: Induction of cytoplasmic membrane rupture in Staphylococcus aureus ATCC 25923 assessed as content leakage at 2 times MIC incubated for 30 to 120 mins by SEM analysis; format: subcellular; settings: time 30-120 min
# [36] = tested on: Escherichia coli; test: Antibacterial activity against Escherichia coli ATCC 25922 incubated for 18 to 24 hrs by broth microdilution method; format: functional; settings: time 18-24 hrs
# [37] = tested on: Staphylococcus aureus; test: Inhibition of biofilm formation in Staphylococcus aureus ATCC 25923 at 1 time MIC incubated for 24 hrs by crystal violet staining based assay; format: functional, organism-based
# [38] = tested on: Cell membrane; test: Induction of inner membrane permeabilization in Escherichia coli ML-35 assessed as increase in […] intensity measured every 5 mins for 135 mins by ONPG dye based microplate reader assay; format: subcellular
# [39] = tested on: Pseudomonas aeruginosa; test: Antibiofilm activity against Pseudomonas aeruginosa ATCC 27853 assessed as eradication of preformed biofilms at 4 times MIC incubated for 24 hrs by crystal violet staining based assay; format: functional, organism-based
# [40] = tested on: Escherichia coli; test: Antibiofilm activity against Escherichia coli ATCC 25922 assessed as eradication of preformed biofilms at 2 to 4 times MIC incubated for 24 hrs by crystal violet staining based assay; format: functional, organism-based
# [41] = tested on: Klebsiella pneumoniae; test: Antibacterial activity against rifampicin resistant Klebsiella pneumoniae; format: functional
# [42] = tested on: Klebsiella pneumoniae; test: Additive antibacterial activity against Klebsiella pneumoniae ATCC 700603 assessed as fractional inhibitory concentration index at 1/4 to 4 times MIC incubated for 18 to 24 hrs in presence of kanamycin by checkerboard assay; format: functional; settings: time 18-24 hrs
# [43] = tested on: Klebsiella pneumoniae; test: Antibiofilm activity against Klebsiella pneumoniae ATCC 700603 assessed as eradication of preformed biofilms at 2 to 4 times MIC incubated for 24 hrs by crystal violet staining based assay; format: functional, organism-based
smiles,measurement,setting,value
CC(C)C[C@H](NC(=O)[C@H](CC(C)C)NC(=O)[C@H](Cc1ccc(O)cc1)NC(=O)[C@H](CCCCN)NC(=O)[C@H](CC(C)C)NC(=O)[C@H](CCCNC(=N)N)NC(=O)[C@H](CCCCN)NC(=O)[C@H](Cc1ccc(-c2ccccc2)cc1)NC(=O)[C@H](CC(C)C)NC(=O)CN)C(N)=O (H-GL[Bip]KRLKYLL-NH2),MIC,[1],8 µM
same,Activity,[2],Active
same,Activity,[3],Dose-dependent-effect; Superior Activity Compared To Polymyxin B And Vancomycin
same,fractional inhibitory concentration index (FICI),[4],0.5
same,half-life,[5],1.36 h
same,Activity,[6],Time-dependent-effect; More Potent Than 1% Triton X-100 And Polymyxin B
same,MIC,[7],8 µM
same,MIC,[8],8 µM
same,MIC,[9],8 µM
same,MIC,[10],8 µM
same,Activity,[11],Active
same,inhibition,[12],Dose-dependent-effect; Inhibition Comparable To Polymyxin B
same,CC50 at 1 h,[13],50.9 µM
same,Stability,[14],Stable
same,inhibition,[15],Active
same,fractional inhibitory concentration index (FICI),[16],0.75
same,LD50 at 336 h,[17],66.7 mg/kg
same,inhibition,[18],Active
same,Activity,[19],Dose-dependent-effect; Superior Activity Compared To Polymyxin B And Vancomycin
same,MIC,[20],8 µM
same,MIC,[21],8 µM
same,MIC,[22],8 µM
same,fractional inhibitory concentration index (FICI),[23],0.563
same,Activity,[24],Active
same,Activity,[25],Active; More Potent Than Polymyxin B And Vancomycin
same,inhibition,[26],Dose-dependent-effect; Inhibition Comparable To Polymyxin B
same,MIC,[27],8 µM
same,MIC,[28],8 µM
same,Activity,[29],Active
same,Activity,[30],Dose-dependent-effect; Superior Activity Compared To Polymyxin B And Vancomycin
same,Activity,[31],Active
same,Activity,[32],Active
same,Activity,[33],Active; More Potent Than Polymyxin B And Vancomycin
same,inhibition,[34],Dose-dependent-effect; Inhibition Comparable To Polymyxin B
same,Activity,[35],Active
same,MIC,[36],8 µM
same,inhibition,[37],Active
same,Activity,[38],Dose-dependent-effect; More Potent Than 1% Triton X-100 And Polymyxin B
same,Activity,[39],Active
same,Activity,[40],Active
same,MIC,[41],8 µM
same,fractional inhibitory concentration index (FICI),[42],0.563
same,Activity,[43],Active
CC(C)C[C@H](NC(=O)[C@H](CC(C)C)NC(=O)[C@H](Cc1ccc(OP(=O)(O)O)cc1)NC(=O)[C@H](CCCCN)NC(=O)[C@H](CC(C)C)NC(=O)[C@H](CCCNC(=N)N)NC(=O)[C@H](CCCCN)NC(=O)[C@H](Cc1ccc(-c2ccccc2)cc1)NC(=O)[C@H](CC(C)C)NC(=O)CN)C(N)=O (H-GL[Bip]KRLK[pY]LL-NH2),MIC,[1],8 µM
same,Activity,[2],Active
same,Activity,[3],Dose-dependent-effect; Superior Activity Compared To Polymyxin B And Vancomycin
same,fractional inhibitory concentration index (FICI),[4],0.5
same,half-life,[5],8.51 h
same,Activity,[6],Time-dependent-effect; More Potent Than 1% Triton X-100 And Polymyxin B
same,MIC,[7],8 µM
same,MIC,[8],4 µM
same,MIC,[9],15 µM
same,MIC,[10],8 µM
same,Activity,[11],Active
same,inhibition,[12],Dose-dependent-effect; Inhibition Comparable To Polymyxin B
same,CC50 at 1 h,[13],168 µM
same,Stability,[14],Stable
same,inhibition,[15],Active
same,fractional inhibitory concentration index (FICI),[16],0.563
same,LD50 at 336 h,[17],283 mg/kg
same,inhibition,[18],Active
same,Activity,[19],Dose-dependent-effect; Superior Activity Compared To Polymyxin B And Vancomycin
same,MIC,[20],8 µM
same,MIC,[21],16 µM
same,MIC,[22],8 µM
same,fractional inhibitory concentration index (FICI),[23],0.563
same,Activity,[24],Active
same,Activity,[25],Active; More Potent Than Polymyxin B And Vancomycin
same,inhibition,[26],Dose-dependent-effect; Inhibition Comparable To Polymyxin B
same,MIC,[27],8 µM
same,MIC,[28],8 µM
same,Activity,[29],Active
same,Activity,[30],Dose-dependent-effect; Superior Activity Compared To Polymyxin B And Vancomycin
same,Activity,[31],Active
same,Activity,[32],Active
same,Activity,[33],Active; More Potent Than Polymyxin B And Vancomycin
same,inhibition,[34],Dose-dependent-effect; Inhibition Comparable To Polymyxin B
same,Activity,[35],Active
same,MIC,[36],8 µM
same,inhibition,[37],Active
same,Activity,[38],Dose-dependent-effect; More Potent Than 1% Triton X-100 And Polymyxin B
same,Activity,[39],Active
same,Activity,[40],Active
same,MIC,[41],8 µM
same,fractional inhibitory concentration index (FICI),[42],0.563
same,Activity,[43],Active
